Test results: ChEMBL document CHEMBL2074010, “Transport function and hepatocellular localization of mrp6 in rat liver” (Mol Pharmacol, 2000)

Target: ATP-binding cassette sub-family C member 2 (Rattus norvegicus, UniProt Q63120)
Test: TP_TRANSPORTER: uptake in membrane vesicles from Mrp2-expressing Sf9 cells
Type: functional, cell membranes, Membrane vesicle

Sequence of ATP-binding cassette sub-family C member 2 (Q63120 whole entry): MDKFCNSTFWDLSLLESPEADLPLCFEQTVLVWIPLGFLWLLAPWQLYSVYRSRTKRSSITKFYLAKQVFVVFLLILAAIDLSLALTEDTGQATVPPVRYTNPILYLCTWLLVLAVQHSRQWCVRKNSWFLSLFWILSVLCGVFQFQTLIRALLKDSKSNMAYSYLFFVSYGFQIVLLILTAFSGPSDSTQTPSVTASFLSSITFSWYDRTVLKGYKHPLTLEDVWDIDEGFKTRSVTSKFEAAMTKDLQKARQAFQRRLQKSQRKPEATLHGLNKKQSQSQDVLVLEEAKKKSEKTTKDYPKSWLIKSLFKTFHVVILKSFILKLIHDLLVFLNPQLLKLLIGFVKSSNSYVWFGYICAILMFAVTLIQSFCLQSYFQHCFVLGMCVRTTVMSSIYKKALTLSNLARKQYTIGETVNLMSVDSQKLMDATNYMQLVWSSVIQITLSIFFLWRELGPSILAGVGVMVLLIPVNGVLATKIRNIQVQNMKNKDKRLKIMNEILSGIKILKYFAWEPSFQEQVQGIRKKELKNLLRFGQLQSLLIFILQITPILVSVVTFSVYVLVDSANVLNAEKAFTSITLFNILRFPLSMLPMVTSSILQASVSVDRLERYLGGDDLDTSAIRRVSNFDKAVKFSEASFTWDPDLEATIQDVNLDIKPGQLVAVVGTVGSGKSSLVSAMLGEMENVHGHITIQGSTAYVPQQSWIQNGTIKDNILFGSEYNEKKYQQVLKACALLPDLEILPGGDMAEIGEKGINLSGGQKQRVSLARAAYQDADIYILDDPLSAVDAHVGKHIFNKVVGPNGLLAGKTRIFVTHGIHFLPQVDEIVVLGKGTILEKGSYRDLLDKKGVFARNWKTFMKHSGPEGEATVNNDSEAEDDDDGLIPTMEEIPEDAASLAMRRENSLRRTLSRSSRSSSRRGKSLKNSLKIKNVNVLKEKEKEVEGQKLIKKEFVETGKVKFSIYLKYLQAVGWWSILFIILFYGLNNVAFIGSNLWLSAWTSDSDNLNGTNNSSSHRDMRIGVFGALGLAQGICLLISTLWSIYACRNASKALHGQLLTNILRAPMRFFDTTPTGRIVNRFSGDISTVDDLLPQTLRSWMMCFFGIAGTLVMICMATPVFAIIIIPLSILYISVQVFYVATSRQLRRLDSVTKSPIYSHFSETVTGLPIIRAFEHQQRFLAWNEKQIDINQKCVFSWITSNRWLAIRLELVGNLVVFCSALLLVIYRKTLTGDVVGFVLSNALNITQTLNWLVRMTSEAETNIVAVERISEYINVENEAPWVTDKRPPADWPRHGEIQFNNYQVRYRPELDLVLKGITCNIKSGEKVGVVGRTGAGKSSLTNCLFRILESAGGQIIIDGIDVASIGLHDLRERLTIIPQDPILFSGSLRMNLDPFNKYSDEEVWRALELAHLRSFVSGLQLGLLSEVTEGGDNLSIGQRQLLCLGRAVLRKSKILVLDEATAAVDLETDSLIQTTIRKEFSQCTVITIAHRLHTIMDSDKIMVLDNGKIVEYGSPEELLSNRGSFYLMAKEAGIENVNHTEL

SMILES	Activity
N[C@@H](CCC(=O)N[C@H](CSc1ccc([N+](=O)[O-])cc1[N+](=O)[O-])C(=O)NCC(=O)O)C(=O)O	is not a substrate [-]
CC[C@H](C)[C@H](NC(=O)[C@H](CC(=O)O)NC(=O)[C@H](CC(C)C)NC(=O)[C@H](Cc1cnc[nH]1)NC(=O)[C@@H]1CSSC[C@H](N)C(=O)N[C@@H](CO)C(=O)N[C@H]2CSSC[C@H](NC(=O)[C@H](CCC(=O)O)NC(=O)[C@H](CCCCN)NC(=O)[C@H](CC(=O)O)NC(=O)[C@H](CCSC)NC(=O)[C@H](CC(C)C)NC(=O)[C@H](CO)NC(=O)[C@H](CO)NC2=O)C(=O)N[C@@H](C(C)C)C(=O)N[C@@H](Cc2ccc(O)cc2)C(=O)N[C@@H](Cc2ccccc2)C(=O)N1)C(=O)N[C@H](C(=O)N[C@@H](Cc1c[nH]c2ccccc12)C(=O)O)[C@@H](C)CC [ENDOTHELIN]	substrate [+]
C[C@]12CC[C@@H]3c4ccc(O)cc4CC[C@H]3[C@@H]1CC[C@@H]2O[C@@H]1O[C@H](C(=O)O)[C@@H](O)[C@H](O)[C@H]1O [ESTRADIOL 17B GLUCURONIDE]	is not a substrate [-]
CCCCC/C=C\C\C=C/C=C/C=C/[C@@H](SC[C@@H](NC(=O)CC[C@H](N)C(=O)O)C(=O)NCC(=O)O)[C@@H](O)CCCC(=O)O [LEUKOTRIEN C4]	is not a substrate [-]
